Reference: paper PMC7948503, “Optimization of a peptide ligand for the adhesion GPCR ADGRG2 provides a potent tool to explore receptor biology” (The Journal of Biological Chemistry, 2020)
Non-standard residues stand in square brackets, D forms with d. Residues, ends and D or L forms follow the SMILES beside them. Phe(4-Me) = Cc1ccc(C[C@H](N)C(=O)O)cc1

Experiments:
Assay in all cases: GloSensor cAMP assay
Assay type in all cases: cell-based
ADGRG2-ΔGPS-β F838A = molecular target: T1, ADGRG2-ΔGPS-β F838A (Mus musculus, UniProt Q8CJ12, F852A); conditions: mutant F838A; HEK293, cAMP Glosensor
T1 construct: expressed in transfected cells; host or cells: HEK293
From the text: (§1) Wildtype ADGRG2 full-length (ADGRG2-FL) was cloned from mouse total cDNA libraries using the following primers: forward, […]; reverse, […], and then ADGRG2-FL, ADGRG2 C-terminal truncation mutant (ADGRG2-β), and ADGRG2-ΔGPS-β (the entire ECD of ADGRG2 was deleted) were subcloned into the pcDNA3.1 expression vector. The ADGRG2-ΔGPS-β mutants (T610A, Y611A, C614A, S661A, W662A, I663A, L665A, Y666A，N667A, F671A, L679A, L683A, I730A, V731A, F741A, F747A, W757A, I758A, N759A, S760A, V762A, F764A, Y765A, V768A, V769A, F772A, V774A, W824A, F826A, F828A, F829A, V834A, V836A, F838A, M839A, I844A, F845A) were generated using a QuikChange Mutagenesis Kit (Stratagene). All mutations were verified by DNA sequencing.
(§2) The Glosensor cAMP assay was performed as described ([6], [39], [40]). HEK293 cells were transfected with the GloSensor plasmid and the desired expression plasmids in 24-well dishes. Twenty-four hours after transfection, the cells were plated on 96-well plates at a cell density of 20,000 cells/well. The cells were maintained in Dulbecco’s modified Eagle’s medium for another 24 h, washed with PBS, and then incubated with 100 μl of solution containing 10% fetal bovine serum, 2% (v/v) GloSensor cAMP reagent, and 88% CO2-independent medium in each well for 2 h. The cAMP signal was examined using a luminescence counter (Mithras LB 940).

ADGRG2-ΔGPS-β M839A = molecular target: T2, ADGRG2-ΔGPS-β M839A (Mus musculus, UniProt Q8CJ12, M853A); conditions: mutant M839A; HEK293, cAMP Glosensor
T2 construct: expressed in transfected cells; host or cells: HEK293
From the text: as §1, §2

ADGRG2-ΔGPS-β T610A = molecular target: T3, ADGRG2-ΔGPS-β T610A (Mus musculus, UniProt Q8CJ12, T624A); conditions: mutant T610A; HEK293, cAMP Glosensor
T3 construct: expressed in transfected cells; host or cells: HEK293
From the text: as §1, §2

ADGRG2-ΔGPS-β N759A = molecular target: T4, ADGRG2-ΔGPS-β N759A (Mus musculus, UniProt Q8CJ12, N773A); conditions: mutant N759A; HEK293, cAMP Glosensor
T4 construct: expressed in transfected cells; host or cells: HEK293
From the text: as §1, §2

ADGRG2-ΔGPS-β V731A = molecular target: T5, ADGRG2-ΔGPS-β V731A (Mus musculus, UniProt Q8CJ12, V745A); conditions: mutant V731A; HEK293, cAMP Glosensor
T5 construct: expressed in transfected cells; host or cells: HEK293
From the text: as §1, §2

ADGRG2-ΔGPS-β V768A = molecular target: T6, ADGRG2-ΔGPS-β V768A (Mus musculus, UniProt Q8CJ12, V782A); conditions: mutant V768A; HEK293, cAMP Glosensor
T6 construct: expressed in transfected cells; host or cells: HEK293
From the text: as §1, §2

ADGRG2-ΔGPS-β Y765A = molecular target: T7, ADGRG2-ΔGPS-β Y765A (Mus musculus, UniProt Q8CJ12, Y779A); conditions: mutant Y765A; HEK293, cAMP Glosensor
T7 construct: expressed in transfected cells; host or cells: HEK293
From the text: as §1, §2

ADGRG2-ΔGPS-β I758A = molecular target: T8, ADGRG2-ΔGPS-β I758A (Mus musculus, UniProt Q8CJ12, I772A); conditions: mutant I758A; HEK293, cAMP Glosensor
T8 construct: expressed in transfected cells; host or cells: HEK293
From the text: as §1, §2

ADGRG2-ΔGPS-β L679A = molecular target: T9, ADGRG2-ΔGPS-β L679A (Mus musculus, UniProt Q8CJ12, L693A); conditions: mutant L679A; HEK293, cAMP Glosensor
T9 construct: expressed in transfected cells; host or cells: HEK293
From the text: as §1, §2

ADGRG2-ΔGPS-β Y666A = molecular target: T10, ADGRG2-ΔGPS-β Y666A (Mus musculus, UniProt Q8CJ12, Y680A); conditions: mutant Y666A; HEK293, cAMP Glosensor
T10 construct: expressed in transfected cells; host or cells: HEK293
From the text: as §1, §2

ADGRG2-ΔGPS-β L683A = molecular target: T11, ADGRG2-ΔGPS-β L683A (Mus musculus, UniProt Q8CJ12, L697A); conditions: mutant L683A; HEK293, cAMP Glosensor
T11 construct: expressed in transfected cells; host or cells: HEK293
From the text: as §1, §2

ADGRG2-ΔGPS-β S760A = molecular target: T12, ADGRG2-ΔGPS-β S760A (Mus musculus, UniProt Q8CJ12, S774A); conditions: mutant S760A; HEK293, cAMP Glosensor
T12 construct: expressed in transfected cells; host or cells: HEK293
From the text: as §1, §2

ADGRG2-ΔGPS-β S661A = molecular target: T13, ADGRG2-ΔGPS-β S661A (Mus musculus, UniProt Q8CJ12, S675A); conditions: mutant S661A; HEK293, cAMP Glosensor
T13 construct: expressed in transfected cells; host or cells: HEK293
From the text: as §1, §2

ADGRG2-ΔGPS-β N667A = molecular target: T14, ADGRG2-ΔGPS-β N667A (Mus musculus, UniProt Q8CJ12, N681A); conditions: mutant N667A; HEK293, cAMP Glosensor
T14 construct: expressed in transfected cells; host or cells: HEK293
From the text: as §1, §2

ADGRG2-ΔGPS-β W757A = molecular target: T15, ADGRG2-ΔGPS-β W757A (Mus musculus, UniProt Q8CJ12, W771A); conditions: mutant W757A; HEK293, cAMP Glosensor
T15 construct: expressed in transfected cells; host or cells: HEK293
From the text: as §1, §2

ADGRG2-ΔGPS-β Y611A = molecular target: T16, ADGRG2-ΔGPS-β Y611A (Mus musculus, UniProt Q8CJ12, Y625A); conditions: mutant Y611A; HEK293, cAMP Glosensor
T16 construct: expressed in transfected cells; host or cells: HEK293
From the text: as §1, §2

ADGRG2-ΔGPS-β I730A = molecular target: T17, ADGRG2-ΔGPS-β I730A (Mus musculus, UniProt Q8CJ12, I744A); conditions: mutant I730A; HEK293, cAMP Glosensor
T17 construct: expressed in transfected cells; host or cells: HEK293
From the text: as §1, §2

ADGRG2-ΔGPS-β V836A = molecular target: T18, ADGRG2-ΔGPS-β V836A (Mus musculus, UniProt Q8CJ12, V850A); conditions: mutant V836A; HEK293, cAMP Glosensor
T18 construct: expressed in transfected cells; host or cells: HEK293
From the text: as §1, §2

ADGRG2-ΔGPS-β F747A = molecular target: T19, ADGRG2-ΔGPS-β F747A (Mus musculus, UniProt Q8CJ12, F761A); conditions: mutant F747A; HEK293, cAMP Glosensor
T19 construct: expressed in transfected cells; host or cells: HEK293
From the text: as §1, §2

ADGRG2-ΔGPS-β V769A = molecular target: T20, ADGRG2-ΔGPS-β V769A (Mus musculus, UniProt Q8CJ12, V783A); conditions: mutant V769A; HEK293, cAMP Glosensor
T20 construct: expressed in transfected cells; host or cells: HEK293
From the text: as §1, §2

T20 sequence (Q8CJ12 614-1009 V783A): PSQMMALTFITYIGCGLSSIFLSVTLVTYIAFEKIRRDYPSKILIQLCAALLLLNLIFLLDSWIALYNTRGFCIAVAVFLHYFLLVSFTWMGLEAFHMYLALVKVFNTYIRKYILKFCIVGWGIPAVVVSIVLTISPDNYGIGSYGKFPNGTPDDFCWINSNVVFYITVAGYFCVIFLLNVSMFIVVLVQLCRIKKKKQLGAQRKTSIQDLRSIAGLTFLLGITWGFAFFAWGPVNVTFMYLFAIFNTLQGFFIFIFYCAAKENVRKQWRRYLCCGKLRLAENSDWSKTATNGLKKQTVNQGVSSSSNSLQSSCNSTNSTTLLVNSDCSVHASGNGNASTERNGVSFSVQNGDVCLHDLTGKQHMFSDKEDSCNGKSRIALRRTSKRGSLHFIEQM
T2 sequence (Q8CJ12 614-1009 M853A): as the sequence (Q8CJ12 614-1009 V783A) above, with A170V, M240A counted along it
T11 sequence (Q8CJ12 614-1009 L697A): as the sequence (Q8CJ12 614-1009 V783A) above, with L84A, A170V counted along it
T18 sequence (Q8CJ12 614-1009 V850A): as the sequence (Q8CJ12 614-1009 V783A) above, with A170V, V237A counted along it
T4 sequence (Q8CJ12 614-1009 N773A): as the sequence (Q8CJ12 614-1009 V783A) above, with N160A, A170V counted along it
T10 sequence (Q8CJ12 614-1009 Y680A): as the sequence (Q8CJ12 614-1009 V783A) above, with Y67A, A170V counted along it
T16 sequence (Q8CJ12 614-1009 Y625A): as the sequence (Q8CJ12 614-1009 V783A) above, with Y12A, A170V counted along it
T1 sequence (Q8CJ12 614-1009 F852A): as the sequence (Q8CJ12 614-1009 V783A) above, with A170V, F239A counted along it
T15 sequence (Q8CJ12 614-1009 W771A): as the sequence (Q8CJ12 614-1009 V783A) above, with W158A, A170V counted along it
T3 sequence (Q8CJ12 614-1009 T624A): as the sequence (Q8CJ12 614-1009 V783A) above, with T11A, A170V counted along it
T19 sequence (Q8CJ12 614-1009 F761A): as the sequence (Q8CJ12 614-1009 V783A) above, with F148A, A170V counted along it
T17 sequence (Q8CJ12 614-1009 I744A): as the sequence (Q8CJ12 614-1009 V783A) above, with I131A, A170V counted along it
T12 sequence (Q8CJ12 614-1009 S774A): as the sequence (Q8CJ12 614-1009 V783A) above, with S161A, A170V counted along it
T5 sequence (Q8CJ12 614-1009 V745A): as the sequence (Q8CJ12 614-1009 V783A) above, with V132A, A170V counted along it
T8 sequence (Q8CJ12 614-1009 I772A): as the sequence (Q8CJ12 614-1009 V783A) above, with I159A, A170V counted along it
T13 sequence (Q8CJ12 614-1009 S675A): as the sequence (Q8CJ12 614-1009 V783A) above, with S62A, A170V counted along it
T14 sequence (Q8CJ12 614-1009 N681A): as the sequence (Q8CJ12 614-1009 V783A) above, with N68A, A170V counted along it
T6 sequence (Q8CJ12 614-1009 V782A): as the sequence (Q8CJ12 614-1009 V783A) above, with V169A, A170V counted along it
T9 sequence (Q8CJ12 614-1009 L693A): as the sequence (Q8CJ12 614-1009 V783A) above, with L80A, A170V counted along it

`CC[C@H](C)[C@H](NC(=O)CNC(=O)[C@H](Cc1ccc(C)cc1)NC(=O)[C@H](CO)NC(=O)[C@@H](N)C(C)C)C(=O)N[C@@H](CC(C)C)C(=O)N[C@@H](CC(C)C)C(=O)N[C@@H](CC(=O)O)C(=O)N[C@@H](CC(C)C)C(=O)N[C@@H](CO)C(=O)N[C@@H](CCCNC(=N)N)C(=O)N[C@H](C(=O)N[C@@H](CO)C(=O)N[C@@H](CC(C)C)C(=O)N1CCC[C@H]1C(=O)O)[C@@H](C)O` [VPM-p15] (H-VS[Phe(4-Me)]GILLDLSRTSLP-OH) was tested, and the EC50 (ADGRG2-ΔGPS-β F838A) was 1.7 µM, the EC50 (ADGRG2-ΔGPS-β M839A) was 1.72 µM and the EC50 (ADGRG2-ΔGPS-β T610A) was 1.03 µM. For the same compound, the EC50 (ADGRG2-ΔGPS-β N759A) was 4.76 µM, the EC50 (ADGRG2-ΔGPS-β V731A) was 1.22 µM and the EC50 (ADGRG2-ΔGPS-β V768A) was 7.39 µM. For the same compound, the EC50 (ADGRG2-ΔGPS-β Y765A) was 1.07 µM, the EC50 (ADGRG2-ΔGPS-β I758A) was 13.8 µM and the EC50 (ADGRG2-ΔGPS-β L679A) was 1.16 µM. The EC50 (ADGRG2-ΔGPS-β Y666A) was 1.13 µM, the EC50 (ADGRG2-ΔGPS-β L683A) was 1.31 µM and the EC50 (ADGRG2-ΔGPS-β S760A) was 1.95 µM. The EC50 (ADGRG2-ΔGPS-β S661A) was 2.32 µM, the EC50 (ADGRG2-ΔGPS-β N667A) was 1.24 µM and the EC50 (ADGRG2-ΔGPS-β W757A) was 14.2 µM. The EC50 (ADGRG2-ΔGPS-β Y611A) was 1.06 µM, the EC50 (ADGRG2-ΔGPS-β I730A) was 1.33 µM and the EC50 (ADGRG2-ΔGPS-β V836A) was 4.13 µM. The EC50 (ADGRG2-ΔGPS-β F747A) was 1.13 µM and the EC50 (ADGRG2-ΔGPS-β V769A) was 1.69 µM.
